The source made the active and inactive calls. No cut-off for these calls is given here. Where a SMILES comes first, the peptide text is derived from it. The star is where a group is joined. Cbz = O=C(OCc1ccccc1)*
Tests used:
[1] = molecular target: T1, Solute carrier family 2, facilitated glucose transporter member 4 (Rattus norvegicus, UniProt P19357); test: Antagonist activity at GLUT4 in rat adipocytes assessed as reduction in insulin-stimulated [3H]2-deoxyglucose uptake preincubated for 1 min followed by [3H]2-deoxyglucose addition measured after 1 min by liquid scintillation counting analysis; type: cell-based
T1 sequence (P19357 whole entry): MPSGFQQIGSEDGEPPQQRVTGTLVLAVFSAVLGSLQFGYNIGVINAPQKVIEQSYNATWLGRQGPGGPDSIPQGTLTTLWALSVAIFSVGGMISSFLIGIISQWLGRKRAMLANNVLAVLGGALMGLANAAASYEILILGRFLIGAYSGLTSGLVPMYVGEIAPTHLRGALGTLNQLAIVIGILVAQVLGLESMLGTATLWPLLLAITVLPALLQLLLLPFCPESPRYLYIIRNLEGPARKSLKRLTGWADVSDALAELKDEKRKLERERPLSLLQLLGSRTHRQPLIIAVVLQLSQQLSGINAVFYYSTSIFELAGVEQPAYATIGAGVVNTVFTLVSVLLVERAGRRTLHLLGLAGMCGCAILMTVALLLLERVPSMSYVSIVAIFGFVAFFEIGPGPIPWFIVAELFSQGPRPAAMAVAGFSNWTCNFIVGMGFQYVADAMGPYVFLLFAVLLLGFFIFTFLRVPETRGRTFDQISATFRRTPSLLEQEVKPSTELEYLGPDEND

KMS-11 = test: Antiproliferative activity against human KMS11 cells over-expressing GFP after 72 hrs by CellTiter-Glo assay; type: functional, cell-based; details: KMS-11, 72 h
[2] = molecular target: T2, Solute carrier family 2, facilitated glucose transporter member 1 (Homo sapiens, UniProt P11166); test: Antagonist activity at human GLUT1 expressed in HEK293 cells transfected with GLUT1 shRNA assessed as inhibition of [3H]2-deoxy-D-glucose uptake preincubated for 5 mins followed by [3H]2-deoxy-D-glucose addition and measured after 6 mins; type: cell-based
T2 sequence (P11166 whole entry): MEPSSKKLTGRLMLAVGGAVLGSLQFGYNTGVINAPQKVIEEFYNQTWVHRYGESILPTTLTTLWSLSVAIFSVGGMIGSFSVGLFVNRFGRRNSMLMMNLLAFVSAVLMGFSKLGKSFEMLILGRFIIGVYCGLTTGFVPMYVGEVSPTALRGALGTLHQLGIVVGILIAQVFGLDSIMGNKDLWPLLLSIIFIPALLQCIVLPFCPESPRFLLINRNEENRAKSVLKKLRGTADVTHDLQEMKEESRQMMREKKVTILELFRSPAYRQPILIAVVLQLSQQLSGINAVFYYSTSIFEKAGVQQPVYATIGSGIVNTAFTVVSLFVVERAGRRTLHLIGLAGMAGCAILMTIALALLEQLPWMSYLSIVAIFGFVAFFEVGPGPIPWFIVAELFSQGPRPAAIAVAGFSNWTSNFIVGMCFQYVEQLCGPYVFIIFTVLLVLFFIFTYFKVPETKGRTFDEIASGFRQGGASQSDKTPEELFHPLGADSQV

[3] = molecular target: T3, Solute carrier family 2, facilitated glucose transporter member 8 (Homo sapiens, UniProt Q9NY64); test: Antagonist activity at human GLUT8 expressed in HEK293 cells transfected with GLUT1 shRNA assessed as inhibition of [3H]2-deoxy-D-glucose uptake preincubated for 5 mins followed by [3H]2-deoxy-D-glucose addition and measured after 6 mins; type: cell-based
T3 sequence (Q9NY64 whole entry): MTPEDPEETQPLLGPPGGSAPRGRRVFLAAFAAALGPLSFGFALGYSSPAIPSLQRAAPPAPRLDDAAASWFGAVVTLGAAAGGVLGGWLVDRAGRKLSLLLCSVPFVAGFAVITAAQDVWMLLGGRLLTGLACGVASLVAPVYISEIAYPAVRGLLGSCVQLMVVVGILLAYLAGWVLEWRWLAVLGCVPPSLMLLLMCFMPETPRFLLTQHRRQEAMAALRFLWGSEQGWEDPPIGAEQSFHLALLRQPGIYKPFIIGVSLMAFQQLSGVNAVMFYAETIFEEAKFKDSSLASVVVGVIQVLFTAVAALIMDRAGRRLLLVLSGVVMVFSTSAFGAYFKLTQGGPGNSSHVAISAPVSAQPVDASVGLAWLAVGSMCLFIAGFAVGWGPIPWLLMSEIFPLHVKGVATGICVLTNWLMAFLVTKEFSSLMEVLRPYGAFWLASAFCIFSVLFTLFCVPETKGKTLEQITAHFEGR

[4] = molecular target: T4, Solute carrier family 2, facilitated glucose transporter member 4 (Rattus norvegicus) (UniProt P19357); test: Displacement of ATB-BMPA from rat C-terminal 6His/Myc-tagged GLUT4 expressed in HEK293 cell low density microsome at 20 uM preincubated for 10 mins followed by ATB-BMPA addition measured after 10 mins; type: cell-based
T4 sequence (whole entry): T1 sequence (P19357 whole entry)

[5] = molecular target: T5, Solute carrier family 2, facilitated glucose transporter member 4 (Homo sapiens, UniProt P14672); test: Antagonist activity at human GLUT4 expressed in HEK293 cells transfected with GLUT1 shRNA assessed as inhibition of [3H]2-deoxy-D-glucose uptake preincubated for 5 mins followed by [3H]2-deoxy-D-glucose addition and measured after 6 mins; type: cell-based
T5 sequence (P14672 whole entry): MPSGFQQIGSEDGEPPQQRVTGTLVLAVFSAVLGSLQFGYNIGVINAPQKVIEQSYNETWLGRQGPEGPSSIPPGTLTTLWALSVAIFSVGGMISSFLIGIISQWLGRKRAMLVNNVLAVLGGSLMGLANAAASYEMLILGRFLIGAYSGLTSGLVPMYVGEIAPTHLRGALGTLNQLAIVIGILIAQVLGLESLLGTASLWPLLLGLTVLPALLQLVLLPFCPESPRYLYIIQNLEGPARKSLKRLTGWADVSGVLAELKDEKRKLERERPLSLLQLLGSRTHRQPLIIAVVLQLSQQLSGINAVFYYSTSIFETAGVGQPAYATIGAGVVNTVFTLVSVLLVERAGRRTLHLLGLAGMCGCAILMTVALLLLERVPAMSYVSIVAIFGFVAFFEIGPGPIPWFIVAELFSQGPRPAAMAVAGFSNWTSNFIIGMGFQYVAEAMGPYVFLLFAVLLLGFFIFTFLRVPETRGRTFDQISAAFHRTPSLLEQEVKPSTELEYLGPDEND

[6] = molecular target: T6, Solute carrier family 2, facilitated glucose transporter member 1 (Rattus norvegicus) (UniProt P11167); test: Displacement of ATB-BMPA from rat C-terminal 6His/Myc-tagged GLUT1 expressed in HEK293 cell low density microsome at 20 uM preincubated for 10 mins followed by ATB-BMPA addition measured after 10 mins; type: cell-based
T6 sequence (whole entry): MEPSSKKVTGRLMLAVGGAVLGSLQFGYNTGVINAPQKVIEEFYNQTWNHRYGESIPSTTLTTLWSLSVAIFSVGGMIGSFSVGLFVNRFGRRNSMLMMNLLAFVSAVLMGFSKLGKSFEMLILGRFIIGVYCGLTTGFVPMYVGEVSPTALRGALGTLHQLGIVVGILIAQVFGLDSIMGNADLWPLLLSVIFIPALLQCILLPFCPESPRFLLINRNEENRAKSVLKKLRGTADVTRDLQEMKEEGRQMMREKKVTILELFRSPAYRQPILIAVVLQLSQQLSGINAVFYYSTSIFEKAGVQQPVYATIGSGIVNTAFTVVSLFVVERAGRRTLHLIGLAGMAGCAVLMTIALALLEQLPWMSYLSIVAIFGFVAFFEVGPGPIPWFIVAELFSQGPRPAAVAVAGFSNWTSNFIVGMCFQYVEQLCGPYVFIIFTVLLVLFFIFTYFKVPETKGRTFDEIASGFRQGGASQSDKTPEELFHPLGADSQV

Compound: CCOC(=O)[C@H](Cc1ccccc1)NC(=O)[C@H](Cc1ccccc1)NC(=O)[C@H](Cc1cnc[nH]1)NC(=O)OCc1ccccc1 (Cbz-His-Phe-Phe-OEt)
- Ki [1]: 26 µM

Compound: COc1ccc(C(=O)N(Cc2ccncc2)Cc2cccc(OCC3CCOCC3)c2)cc1
- IC50 (KMS-11): 17.7 µM

Compound: COc1ccc(C(=O)N(Cc2ccncc2)Cc2cccc(OCCc3ccc(F)cc3)c2)cc1
- IC50 [2]: > 100 µM
- IC50 [3]: 6 µM
- Activity [4]: Active
- IC50 [5]: 1.7 µM
- Activity [6]: Active

Compound: COc1ccc(C(=O)N(Cc2ccncc2)Cc2cccc(OCC3CCCCC3)c2)cc1
- IC50 (KMS-11): 19.7 µM

Compound: COc1ccc(C(=O)N(Cc2ccncc2)Cc2cccc(OCc3cccc(OC)c3)c2)cc1
- IC50 [5]: 11 µM
- IC50 (KMS-11): 16.9 µM

Compound: COc1ccc(C(=O)N(Cc2ccncc2)Cc2cccc(OCCc3ccc(C)cc3)c2)cc1
- IC50 (KMS-11): 9.1 µM

Compound: COc1ccc(C(=O)N(Cc2ccncc2)Cc2cccc(OCc3ccc([N+](=O)[O-])cc3)c2)cc1
- IC50 (KMS-11): 15.4 µM

Compound: COc1ccc(C(=O)N(Cc2ccncc2)Cc2cccc(OCc3cccc([N+](=O)[O-])c3)c2)cc1
- IC50 (KMS-11): 19.6 µM

Compound: COc1ccc(C(=O)N(Cc2ccncc2)Cc2cccc(OCc3ccc(C(F)(F)F)cc3)c2)cc1
- IC50 (KMS-11): 14.3 µM

Source: ChEMBL document CHEMBL4130400, “Development of GLUT4-selective antagonists for multiple myeloma therapy” (Eur J Med Chem, 2017)
